PMC4960549, “Structure-Activity Analysis of Gram-positive Bacterium-producing Lasso Peptides with Anti-mycobacterial Activity” (Scientific Reports, 2016)
Positions of bridges follow the written chain, without caps; N, C: chain ends. No end group written: not given here.

Test system: M. smegmatis 607
Experiment: Anti-mycobacterial activity by paper disk method
Format: cell-based, Mycobacterium smegmatis
Settings: for Inhibition zone: paper disk (6 mm) containing 1 μg peptide on Middlebrook 7H9 agar spread with M. smegmatis 607 (approx. 1.5 × 10^8 CFU/ml), 37 °C, 48 hr, diameter of inhibitory zone, average from two independent experiments, '-' = no zone (activity lost); for Anti-mycobacterial activity compared with lariatin A (in words): M. smegmatis, paper disk method, 1 μg per disk
Protocol: To gain insights into the structure-activity relationships of lariatin A, anti-mycobacterial activity of 20 lariatin variants against M. smegmatis was evaluated by paper disk method (Fig. 4). Among lariatin variants related to the macrolactam ring, the anti-mycobacterial activity of Tyr6 variant only was lost, while the replacement of Tyr6 with tryptophan and phenylalanine didn’t affect the anti-mycobacterial activity. […] Furthermore, Gly11 and Asn14 were closely involved in the anti-mycobacterial activity because of the loss of the activity in their variants. […] Thus, it was shown that the positively charged amino acid residue was favorable at the residue at position 17. Also, it was shown that the amino acid residue without bulky or branched side chains at the residues at positions 15, 16 and 18 contributed to the higher potency.
Figure 4 Anti-mycobacterial activity of lariatin variants. Anti-mycobacterial activities of lariatin variants were evaluated by a paper disk method. Value of the inhibition zone against M. smegmatis and relative activity in comparison with lariatin A were shown here. Bar color represents potency of each compound when the value of inhibition zone of lariatin A is set up at 100%: yellow, <50% activity; green, 50–120% activity; blue, >120% activity. Value of inhibition zone represents the average from two independent experiments. TEXT PRINTED IN THE PICTURE: Lariatin A: Inhibition zone (mm): 21.8 | S2A: Inhibition zone (mm): 20.4 | Q3A: Inhibition zone (mm): 16.3 | L4A: Inhibition zone (mm): 8.9 | V5A: Inhibition zone (mm): 11.3 | Y6A: Inhibition zone (mm): - | V10A: Inhibition zone (mm): 7.6 | G11A: Inhibition zone (mm): - | H12A: Inhibition zone (mm): 12.7 | S13A: Inhibition zone (mm): 19.8 | N14A: Inhibition zone (mm): - | V15A: Inhibition zone (mm): 20.7 | I16A: Inhibition zone (mm): 24.0 | K17A: Inhibition zone (mm): 10.4 | P18A: Inhibition zone (mm): 29.6 | V15A/I16A: Inhibition zone (mm): 29.3 | Y6F: Inhibition zone (mm): 30.7 | Y6W: Inhibition zone (mm): 22.8 | R7K: Inhibition zone (mm): 26.5 | W9Y: Inhibition zone (mm): 14.9 | K17R: Inhibition zone (mm): 31.1
Antimicrobial activity of lariatins against M. smegmatis 607 was measured by a paper disk method. The cell suspension of M. smegmatis 607 was adjusted to approximately 1.5 × 10^8 CFU ml^−1 in a Middlebrook 7H9 broth (Difco, Becton Dickinson, Sparks, MD, USA) containing 0.05% Tween 80 and 10% ADC enrichment (5.0% bovine albumin fraction V, 2.0% dextrose and catalase (30 μg/ml)), and were spread on a Middlebrook 7H9 agar plate. A paper disk (6 ϕ mm, Advantec Toyo Kaisha, Ltd. Tokyo, Japan) containing 1 μg lariatin variants was placed on the agar plate and was incubated at 37 °C for 48 hr. A diameter (mm) of the inhibitory zone observed around the paper disk was measured to evaluate the anti-mycobacterial activity.

Substance	Inhibition zone	Anti-mycobacterial activity compared with lariatin A (in words)
V15A: lariatin A variant, alanine substitution at position 15 (GSQLVYREWVGHSNAIKP; lactam N-8 (inferred); not fully specified; ends not checked; UniProt H7C8I3 27-44, looked up, variant V15A)	20.7 mm	–
K17A: lariatin A variant, alanine substitution at position 17 (GSQLVYREWVGHSNVIAP; lactam N-8 (inferred); not fully specified; ends not checked; UniProt H7C8I3 27-44, looked up, variant K17A)	10.4 mm	weaker activity
P18A: lariatin A variant, alanine substitution at position 18 (GSQLVYREWVGHSNVIKA; lactam N-8 (inferred); not fully specified; ends not checked; UniProt H7C8I3 27-44, looked up, variant P18A)	29.6 mm	more potent activity than lariatin A
Lariatin A (GSQLVYREWVGHSNVIKP; lactam N-8 (inferred); ends not checked; UniProt H7C8I3 27-44, looked up) [18-residue lasso peptide from Rhodococcus jostii K01-B0171, macrolactam ring between Gly1 and Glu8, C-terminal tail threaded through ring]	21.8 mm	–
Y6F: lariatin A variant, Tyr6 replaced with phenylalanine (GSQLVFREWVGHSNVIKP; lactam N-8 (inferred); ends not checked; UniProt H7C8I3 27-44, looked up, variant Y6F)	30.7 mm	–
S13A: lariatin A variant, alanine substitution at position 13 (GSQLVYREWVGHANVIKP; lactam N-8 (inferred); not fully specified; ends not checked; UniProt H7C8I3 27-44, looked up, variant S13A)	19.8 mm	–
H12A: lariatin A variant, alanine substitution at position 12 (GSQLVYREWVGASNVIKP; lactam N-8 (inferred); not fully specified; ends not checked; UniProt H7C8I3 27-44, looked up, variant H12A)	12.7 mm	–
